# Measured values published in patent US5508413A, “(+)-5-isopropyl 3-methyl 2-cyano-6 methyl-4-(3-nitrophenyl)-1, 4-dihydropyridine-3, 5-dicarboxylate” (priority 1991, dated 1996).
# Key:
# Anesthetized Dogs = experiment: Measurement of Arterial Blood Pressure in Anesthetized Dogs; assay type: in vivo, Mongrel dogs; conditions: for blood pressure / ratio of blood pressure change as compared to the normal blood pressure: anesthetized dogs
# Experimental: [A] Measurement of Arterial Blood Pressure in Anesthetized Dogs
# Mongrel dogs weighing 11.8 to 19.0 kg were used. The dogs were anesthetized by intraperitoneal injection of pentobarbital sodium (35 mg/kg). The blood pressure was measured with a pressure transducer in the left femoral artery. The values of blood pressure were recorded on a polygraph. The right femoral vein was cannulated and the cumulative dose (0.01, 0.032, 0.1, 0.32, 1, 3.2, 10, 32 and 100 μg/kg) of the solution of Test Compounds dissolved in a mixture of polyethylene glycol, ethanol and water was intravenously injected in a volume of 0.2 ml/kg.
# The values of blood pressure were shown in the following table with an expression of mm/Hg.
# note: The values of the parentheses mean the ratio of blood pressure
# change (%) in each dose as compared to the normal blood pressure.
# [1] = orally administered; background statement; cited from earlier work
# [2] = background statement; cited from earlier work
# [3] = Solubility Test (in water at ambient temperature); assay type: physicochemical; conditions: for solubility: in water, ambient temperature
# Experimental: [B] Solubility Test Test Method Solubility of Test Compound A and Nilvadipine in water was measured at ambient temperature.
# [4] = cumulative i.v. dose 0.32 μg/kg
# [5] = as compared to its optically inactive racemate, Nilvadipine
Structure (SMILES),blood pressure (Anesthetized Dogs; [4]) [mm/Hg],ratio of blood pressure change as compared to the normal blood pressure (Anesthetized Dogs; [4]),blood pressure (Anesthetized Dogs; cumulative i.v. dose 1 μg/kg) [mm/Hg],ratio of blood pressure change as compared to the normal blood pressure (Anesthetized Dogs; cumulative i.v. dose 1 μg/kg),blood pressure (Anesthetized Dogs; cumulative i.v. dose 3.2 μg/kg) [mm/Hg],ratio of blood pressure change as compared to the normal blood pressure (Anesthetized Dogs; cumulative i.v. dose 3.2 μg/kg) [%],blood pressure (Anesthetized Dogs; cumulative i.v. dose 10 μg/kg) [mm/Hg],ratio of blood pressure change as compared to the normal blood pressure (Anesthetized Dogs; cumulative i.v. dose 10 μg/kg) [%],blood pressure (Anesthetized Dogs; cumulative i.v. dose 32 μg/kg) [mm/Hg],ratio of blood pressure change as compared to the normal blood pressure (Anesthetized Dogs; cumulative i.v. dose 32 μg/kg) [%],blood pressure (Anesthetized Dogs; cumulative i.v. dose 100 μg/kg) [mm/Hg],ratio of blood pressure change as compared to the normal blood pressure (Anesthetized Dogs; cumulative i.v. dose 100 μg/kg) [%],absorbability of said drug into a body (in words) [1],solubility in water (in words) [2],solubility [3] [µg/mL],hypotensive and vasodilating activities (in words) (Anesthetized Dogs; [5]),"solubility (in words) [3, 5]"
"COC(=O)C1=C(C#N)NC(C)=C(C(=O)OC(C)C)C1c1cccc([N+](=O)[O-])c1 (racemic) [Nilvadipine, (±)-5-isopropyl 3-methyl 2-cyano-6-methyl-4-(3-nitrophenyl)-1,4-dihydropyridine-3,5-dicarboxylate]",104 ± 6,+6 ± 1%,103 ± 5,+5 ± 1%,100 ± 4,-3 ± 2,90 ± 3,-7 ± 5,83 ± 5,-15 ± 6,65 ± 6,-34 ± 6,not so good,only slightly soluble in water,0.6,–,–
"COC(=O)C1=C(C#N)NC(C)=C(C(=O)OC(C)C)C1c1cccc([N+](=O)[O-])c1 (single isomer, unassigned; (+)) [(+)-5-isopropyl 3-methyl 2-cyano-6-methyl-4-(3-nitrophenyl)-1,4-dihydropyridine-3,5-dicarboxylate]",–,–,–,–,–,–,–,–,–,–,–,–,–,–,–,much stronger and more lasting hypotensive and vasodilating activities,higher solubility
"COC(=O)C1=C(C#N)NC(C)=C(C(=O)OC(C)C)C1c1cccc([N+](=O)[O-])c1 (single isomer, unassigned; (+)) [Test Compound A, (+)-5-isopropyl 3-methyl 2-cyano-6-methyl-4-(3-nitrophenyl)-1,4-dihydropyridine-3,5-dicarboxylate]",117 ± 6,-2 ± 1%,114 ± 6,-5 ± 1%,101 ± 7,-16 ± 2,74 ± 6,-39 ± 2,64 ± 7,-47 ± 4,58 ± 6,-52 ± 3,–,–,4.7,–,–
